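Tested at 5 concentrations; 48 h exposure; 96-well plates; endpoints linearly interpolated, else capped at highest concentration. Abbreviation: GI50, concentration required for 50% inhibition of growth.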 Activity calls are given as the source filed them. Rule as the data show it: active = GI50 up to about 1.1 µM and inactive = higher.

What all share (assay): NCI anticancer screen, dose series, 48 h
In assay [1] the test system is MCF7.
The subject of assay [2] is BT-549.
Assay [3] has as its system SNB-75.
Assay [4] concerns OVCAR-4.
The test system of assay [5] is 786-0.
Assay [6] deals with MDA-MB-435.
Assay [7] deals with RPMI-8226.
Assay [8] relates to SK-MEL-28.
Assay [9] has as its system HOP-92.
In assay [10] the test system is SK-MEL-2.
The subject of assay [11] is K562.
The test system of assay [12] is HOP-62.
For assay [13], the system named is PC-3.
In assay [14] the test system is A549.
Assay [15] relates to ACHN.
In assay [16] the test system is TK-10.
Assay [17] relates to SF-295.
Assay [18] relates to Malme-3M.
In assay [19] the test system is NCI-H522.
Assay [20] has as its system UACC-257.

In the case of `Cc1c(C)c(CC(=O)N2CC2)c(C)c(C)c1CC(=O)N1CC1`, the GI50 in [1] was 3.22 µM (inactive); in [2], 21.9 µM (inactive); in assay [3], 6.73 µM (inactive); in assay [4], 19.1 µM (inactive); in assay [5] it was 3.56 µM (inactive); in assay [6] it was 16 µM (inactive). Moreover, the GI50 is 10.6 µM (inactive) in [7]; 17 µM (inactive) in assay [8]; 9.48 µM (inactive) in assay [9]; 16 µM (inactive) in [10]; 12.6 µM (inactive) in assay [11]; 5.21 µM (inactive) in assay [12]. In addition, the GI50 was 16 µM (inactive) in [13]; 7.28 µM (inactive) in [14]; 1.43 µM (inactive) in assay [15]; 25.9 µM (inactive) in [16]; 3.4 µM (inactive) in assay [17]; 12.1 µM (inactive) in [18]. Further, the GI50 in assay [19] is 9.02 µM (inactive); in assay [20], 17.6 µM (inactive).

As to `CC(C)=CCc1cc(C2COc3cc4c(c(O)c3C2=O)C=CC(C)(C)O4)c(O)cc1O` (centres undefined), the GI50 in assay [1] is 11.8 µM (inactive); in [2] it was 16.3 µM (inactive); in [3] it was 19.1 µM (inactive); in [4] it was 10.6 µM (inactive); in [5], 19 µM (inactive); in assay [6] it was 16 µM (inactive). For the same molecule, the GI50 in assay [7] was 6.43 µM (inactive); in [8] it was 22.4 µM (inactive); in [9], 16.7 µM (inactive); in [10] it was 17.7 µM (inactive); in assay [11], 3.08 µM (inactive); in assay [12], 17.8 µM (inactive). Also, the GI50 is 12.4 µM (inactive) in assay [13]; 12.7 µM (inactive) in assay [14]; 16.7 µM (inactive) in assay [15]; 16.8 µM (inactive) in assay [16]; 17.8 µM (inactive) in assay [17]; 13.4 µM (inactive) in [18]. Further, the figures for the GI50 in assay [19] and in assay [20] were 11.6 µM (inactive) and 12.8 µM (inactive), respectively.

Consider `Cc1ccc(-c2n[nH]c(=O)[nH]2)cc1[N+](=O)[O-]`, for which the GI50 in assay [1] was > 100 µM (inactive); in assay [2], 36.8 µM (inactive); in [3], 61 µM (inactive); in assay [4], > 100 µM (inactive); in [5], > 100 µM (inactive); in assay [6], > 100 µM (inactive). In addition, the GI50 in [7], in [8], in assay [9], in assay [10], in [11] and in assay [12] was > 100 µM (inactive) throughout. In addition, the GI50 in [13], in [14], in assay [15], in assay [16], in assay [17] and in [18] was > 100 µM (inactive) each time. Besides, the GI50 in assay [19] and in [20] was > 100 µM (inactive) throughout.

Consider `COc1cc(/C=C(\C#N)C(N)=C(C#N)C#N)cc(O)c1O`, for which the GI50 was 95.3 µM (inactive) in [1]; > 100 µM (inactive) in [2]; > 88.5 µM (inactive) in assay [3]; > 100 µM (inactive) in [4]; > 100 µM (inactive) in [5]; 59.3 µM (inactive) in [6]. In addition, the GI50 in assay [7] is > 100 µM (inactive); in assay [8] it was > 100 µM (inactive); in [9] it was > 68.4 µM (inactive); in assay [10], > 100 µM (inactive); in assay [11], > 79.6 µM (inactive); in [12] it was > 71.6 µM (inactive). Further, the GI50 in assay [13] was > 100 µM (inactive); in [14], > 100 µM (inactive); in [15] it was > 100 µM (inactive); in [16], > 100 µM (inactive); in [17] it was > 77.1 µM (inactive); in [18], > 100 µM (inactive). Also, the GI50 in assay [19] is 36 µM (inactive); in assay [20], > 100 µM (inactive).

As to `O=C1c2c(Br)sc(Br)c2[C@@H](O)[C@H]1O`, the GI50 in [1] is 17.1 µM (inactive); in assay [2], 17.9 µM (inactive); in [3], 15.4 µM (inactive); in [4], 14.1 µM (inactive); in assay [5] it was 15.2 µM (inactive); in [6] it was 10.7 µM (inactive). Moreover, the GI50 was 21.7 µM (inactive) in assay [7]; 19.5 µM (inactive) in assay [8]; 19.2 µM (inactive) in assay [9]; 17.1 µM (inactive) in assay [10]; 2.91 µM (inactive) in assay [11]; 16.9 µM (inactive) in assay [12]. The GI50 in [13] was 17.5 µM (inactive); in [14], 20.9 µM (inactive); in assay [15] it was 18 µM (inactive); in assay [16] it was 53.7 µM (inactive); in [17], 18.1 µM (inactive); in assay [18] it was 20.4 µM (inactive). Also, the GI50 in [19] was 1.82 µM (inactive); in assay [20] it was 15.1 µM (inactive).

Regarding `O=C1/C(=C/c2ccc(O)cc2)CCc2ccc([N+](=O)[O-])cc21`, the GI50 in assay [1] was > 33.3 µM (inactive); in [2] it was 31.3 µM (inactive); in assay [3] it was 53.2 µM (inactive); in [4] it was > 90.6 µM (inactive); in [5], > 80.5 µM (inactive); in [6] it was > 100 µM (inactive). Besides, the GI50 in [7] is 2.07 µM (inactive); in assay [8], > 100 µM (inactive); in assay [9], 29.1 µM (inactive); in assay [10], 66.5 µM (inactive); in [11], > 100 µM (inactive); in assay [12], 73.5 µM (inactive). The GI50 in [13] is > 100 µM (inactive); in assay [14] it was 45 µM (inactive); in assay [15] it was > 81.3 µM (inactive); in assay [16], 45.2 µM (inactive); in [17], 63.1 µM (inactive); in assay [18], 98.2 µM (inactive). For the same molecule, the GI50 is 2.65 µM (inactive) in assay [19] and 97.7 µM (inactive) in assay [20].

On to `Nc1nccc2c1ncn2C1C=C(CO)C(O)C1O` (centres undefined), for which the GI50 in assay [1] is 4.29 µM (inactive); in assay [2], 83.2 µM (inactive); in assay [3] it was 62.1 µM (inactive); in [4] it was 59.4 µM (inactive); in [5] it was 60.1 µM (inactive); in [6], > 100 µM (inactive). Moreover, the GI50 in [7] was 6.31 µM (inactive); in [8], 2.73 µM (inactive); in assay [9], 70.1 µM (inactive); in [10], 91.6 µM (inactive); in assay [11] it was 1.86 µM (inactive); in assay [12], 30.3 µM (inactive). The GI50 in [13] was > 100 µM (inactive); in assay [14], 98.4 µM (inactive); in [15], 20.6 µM (inactive); in assay [16] it was > 95.5 µM (inactive); in assay [17], > 100 µM (inactive); in assay [18], 43.6 µM (inactive). The figures for the GI50 in [19] and in assay [20] were > 100 µM (inactive) and 18.4 µM (inactive), respectively.

As to `CC1=C(C(=O)Nc2ccccc2)C(c2ccc(C3C(C(=O)Nc4ccccc4)=C(C)NC(C)=C3C(=O)Nc3ccccc3)cc2)C(C(=O)Nc2ccccc2)=C(C)N1`, the GI50 in assay [1] was 2.86 µM (inactive); in assay [2], 2.55 µM (inactive); in assay [3], 8.2 µM (inactive); in assay [4] it was 6.03 µM (inactive); in [5], 2.54 µM (inactive); in assay [6], 1.86 µM (inactive). The GI50 was 2.61 µM (inactive) in [7]; 1.79 µM (inactive) in [8]; 3.51 µM (inactive) in [9]; 2.07 µM (inactive) in [10]; 2.67 µM (inactive) in [11]; 3.68 µM (inactive) in assay [12]. Also, the GI50 in assay [13] was 3.23 µM (inactive); in assay [14] it was 8.05 µM (inactive); in assay [15], 2.04 µM (inactive); in assay [16], 6.46 µM (inactive); in [17], 2.88 µM (inactive); in [18], 1.89 µM (inactive). Also, the GI50 was 1.54 µM (inactive) in assay [19] and 2.13 µM (inactive) in assay [20].

`CCCCCCOc1ccc(NC2=C(Cl)C(=O)c3c(O)ccc(O)c3C2=O)cc1`: the GI50 in [1] was 0.414 µM (active); in assay [2] it was 3.25 µM (inactive); in [3], 4.06 µM (inactive); in [4], 4.14 µM (inactive); in assay [5] it was 0.611 µM (active); in [6] it was 1.72 µM (inactive). The GI50 in assay [7] was 1.4 µM (inactive); in assay [8], 2 µM (inactive); in [9] it was 2.72 µM (inactive); in [10], 2.96 µM (inactive); in [11], 3.1 µM (inactive); in [12] it was 1.77 µM (inactive). The GI50 in assay [13] was 3.09 µM (inactive); in [14], 3.27 µM (inactive); in assay [15] it was 3.16 µM (inactive); in [16], 6.32 µM (inactive); in assay [17] it was 5.81 µM (inactive); in [18], 1.83 µM (inactive). In addition, the GI50 in assay [19] is 2.15 µM (inactive); in assay [20], 3.85 µM (inactive).

As to `COC(=O)c1c(C)cccc1C1CN=NC12Cc1cccc(C)c1C2=O` (centres undefined), the GI50 in assay [1] was 30.8 µM (inactive); in assay [2] it was 23.6 µM (inactive); in assay [3], 38.4 µM (inactive); in [4] it was 23.9 µM (inactive); in assay [5] it was 39.1 µM (inactive); in assay [6] it was 31.1 µM (inactive). For the same molecule, the GI50 in assay [7] is 17.2 µM (inactive); in assay [8] it was 29.6 µM (inactive); in [9], 14.8 µM (inactive); in assay [10] it was 32.7 µM (inactive); in [11], 25.9 µM (inactive); in assay [12] it was 53.6 µM (inactive). Also, the GI50 is 20.3 µM (inactive) in [13]; 18.9 µM (inactive) in assay [14]; 27.4 µM (inactive) in assay [15]; 35 µM (inactive) in assay [16]; 29.1 µM (inactive) in assay [18]; 15.9 µM (inactive) in assay [19]. The GI50 in assay [20] was 19.6 µM (inactive).

For the origin of these results see ChEMBL document CHEMBL1201862, “PubChem BioAssay data set” (2004).
